Key:
[1] = test system: human HDAC enzymes HDAC1-HDAC11; assay: HDAC inhibition profiling (Fluor de Lys); format: biochemical; conditions: 100 μM, HDAC1-HDAC11, 1% DMSO
Protocol: FIG. 2: In silico docking analysis with 6-PN and 8-PN illustrates the inhibitory potential on human-derived HDACs of class I and II. (A) Results of the in silico docking analysis of 6-PN and 8-PN with crystal structures of HDAC2 (class I) and HDAC4 (class II). […] Both molecules are predicted to interact with the zinc ion as well as other residues of the catalytic center. Docking analyses of 6-PN and 8-PN in the individual HDAC binding pockets were performed using GOLD (version 4.1.2) and MOE (version 2009.10). (B) Overall HDAC inhibition in cellular extracts of the human cell line HeLa by increasing concentrations of 6-PN and 8-PN (5 μM, 10 μM, 20 μM, 50 μM and 100 μM). As reference inhibitor 100 μM SAHA was used. Every concentration was tested three times in triplicates. Shown are the mean±SD. (C) Specific fluometric profiling assay using recombinant human HDACs of classes I, II and IV. Specific inhibition values were generated for the treatment with 100 μM 6-PN and 8-PN. […]
The human HDAC profiling assay was performed on the basis of the Fluor de Lys™ technology by Scottish Biomedical, Glasgow, United Kingdom. The percentage inhibition values of 100 μM of 6-PN and 100 μM of 8-PN against the human HDAC enzymes HDAC1, HDAC2, HDAC3, HDAC4, HDAC5, HDAC6, HDAC7, HDAC8, HDAC9, HDAC10, and HDAC11 were determined. […]

[2] = test system: LOXIMVI melanoma cells; assay: Organotypic human epidermal skin reconstructs, LOXIMVI; format: cell-based; conditions: same treatment conditions (100 μM), untreated 100% MIB1 positive
Protocol: FIG. 11: 6-PN and 8-PN reduce proliferation and invasion of BLM and LOXIMVI melanoma cells in human epidermal skin reconstructs and induce little embryo toxicity. (A) BLM melanoma cells and keratinocytes were seeded on top of a collagen matrix populated by fibroblasts. After 16 days a keratinizing stratified epithelium with a rudimentary corium is formed. […] (B) Similar results were obtained for LOXIMVI melanoma cells under the same treatment conditions. Only nests of dead, MIB1 negative LOXIMVI cells were detected after treatment with the PNs. […]
In this assay, keratinocytes and melanoma cells are seeded on top of a collagen matrix populated by fibroblasts. […] Untreated control BLM cells (depicting 70-80% proliferation, determined by MIB1 immunhistochemistry) had formed a large tumor in the epidermal part of the reconstruct and had invaded the corium (FIG. 11A, upper panel). To determine the amount of proliferating cells, the number of MIB1 positive melanoma cells per power field in the epidermal part of the reconstruct at the epidermal-dermal border was counted (40× magnification, n=5 adjacent fields examined). Further, the number of melanoma cells invading the dermal part of the reconstruct was counted in the same high power fields. In reconstructs with untreated BLM cells, 103±15 MIB1 positive cells and 39±13 invasive cells were counted (FIG. 11A, upper panel). […]

[3] = test system: BLM melanoma cells; assay: PI/Annexin V staining FACS, BLM; format: cell-based, human; conditions: 100 μM; for annexin V positive (apoptotic) cells: DMSO control 4.1%; for PI positive (nectrotic) cells: DMSO control 9.1%
Protocol: (§1) (A) Cell cycle FACS analyses of PI stained BLM and SK-MEL-28 melanoma cells. 100 μM of 8-PN-induced a G2 arrest in both cells. (B) FACS analyses of BLM and SK-MEL-28 melanoma cells treated with 100 μM 6-PN or 8-PN and stained for annexin V/PI; staurosporin was used as control for apoptosis induction and DMSO as vehicle control. […] (C) BLM and SK-MEL-28 melanoma cells were treated with 100 μM of PNs; TSA, SAHA and EMSO were used as controls.
(§2) To further analyze the possibility of apoptosis induction, an extensive apoptosis assay was performed on SK-MEL-28 melanoma cells 4 hours after treatment with 100 μM 6-PN or 8-PN (FIG. 9). […] This was verified by FACS cell cycle analyses to screen for a possible increase of the sub-G1 fraction of cells (apoptotic cells) or for the induction of a G2 arrest (inhibition of proliferation). […] To further differentiate between the induction of apoptosis and/or necrosis an PI/Annexin V staining of SK-MEL-28 and BLM cells was performed 4 hours and 24 hours after the treatment with 6-PN or 8-PN; 10 μM staurosporin (6 hours treatment) was used as positive control for the induction of apoptosis; DMSO treatment was used as vehicle control. The cells were then analyzed by FACS.

[4] = test system: BLM melanoma cells; assay: FACS cell cycle analysis (PI), BLM; format: cell-based, human; conditions: 100 μM, 48 hours
Protocol: as §1, §2

[5] = target: MRP1 (Homo sapiens, UniProt P33527); conditions: cited from earlier work
MRP1, sequence (P33527 whole entry): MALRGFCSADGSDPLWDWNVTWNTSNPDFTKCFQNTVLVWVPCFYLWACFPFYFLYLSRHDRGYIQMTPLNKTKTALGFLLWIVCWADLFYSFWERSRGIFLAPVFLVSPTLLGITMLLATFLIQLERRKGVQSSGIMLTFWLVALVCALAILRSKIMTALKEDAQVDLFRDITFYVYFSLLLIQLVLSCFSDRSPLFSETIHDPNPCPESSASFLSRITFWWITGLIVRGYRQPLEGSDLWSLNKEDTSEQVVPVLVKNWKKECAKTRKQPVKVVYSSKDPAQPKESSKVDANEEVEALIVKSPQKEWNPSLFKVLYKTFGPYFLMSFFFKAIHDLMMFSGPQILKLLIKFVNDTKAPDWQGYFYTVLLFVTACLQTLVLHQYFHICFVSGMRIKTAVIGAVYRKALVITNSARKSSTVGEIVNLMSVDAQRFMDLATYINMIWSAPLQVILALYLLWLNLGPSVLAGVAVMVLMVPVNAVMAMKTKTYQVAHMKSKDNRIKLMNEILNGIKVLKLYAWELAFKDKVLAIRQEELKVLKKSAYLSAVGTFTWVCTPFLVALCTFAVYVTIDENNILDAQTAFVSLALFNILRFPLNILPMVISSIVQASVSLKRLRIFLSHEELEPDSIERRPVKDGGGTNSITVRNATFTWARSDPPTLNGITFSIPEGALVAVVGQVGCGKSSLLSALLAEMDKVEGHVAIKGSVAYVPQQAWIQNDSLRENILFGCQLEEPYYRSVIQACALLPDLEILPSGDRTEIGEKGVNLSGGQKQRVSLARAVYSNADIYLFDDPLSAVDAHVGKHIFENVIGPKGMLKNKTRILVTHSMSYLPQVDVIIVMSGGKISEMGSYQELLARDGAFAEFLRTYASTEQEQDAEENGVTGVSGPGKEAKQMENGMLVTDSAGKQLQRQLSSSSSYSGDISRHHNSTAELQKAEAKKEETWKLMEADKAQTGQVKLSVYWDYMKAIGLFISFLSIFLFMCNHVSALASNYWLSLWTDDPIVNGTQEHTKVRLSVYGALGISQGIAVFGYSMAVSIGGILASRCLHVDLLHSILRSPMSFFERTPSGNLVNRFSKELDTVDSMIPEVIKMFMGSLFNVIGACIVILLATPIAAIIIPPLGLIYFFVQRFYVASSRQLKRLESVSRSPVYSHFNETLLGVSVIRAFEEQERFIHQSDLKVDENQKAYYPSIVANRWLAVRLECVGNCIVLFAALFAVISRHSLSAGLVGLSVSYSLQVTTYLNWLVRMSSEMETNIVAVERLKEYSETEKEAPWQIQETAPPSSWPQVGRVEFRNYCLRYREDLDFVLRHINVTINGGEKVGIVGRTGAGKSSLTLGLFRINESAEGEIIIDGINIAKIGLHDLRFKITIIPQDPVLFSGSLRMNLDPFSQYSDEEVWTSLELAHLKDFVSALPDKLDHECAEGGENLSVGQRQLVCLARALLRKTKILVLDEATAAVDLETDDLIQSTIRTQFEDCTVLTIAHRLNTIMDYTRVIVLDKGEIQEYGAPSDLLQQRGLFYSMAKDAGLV

Structure (SMILES): CC(C)=CCc1c(O)cc(O)c2c1OC(c1ccc(O)cc1)CC2=O (stereo not drawn) [8-PN, 5,7-Dihydroxy-2-(4-hydroxy-phenyl)-8-(3-methyl-but-2-enyl)-chroman-4-one]
- inhibition of HDAC activity on all tested human HDACs [1]: strongly inhibited
- cell proliferation of LOXIMVI cells (MIB1) [2]: completely inhibited
- annexin V positive (apoptotic) cells ([3]; 4 hours): 1.2%
- PI positive (nectrotic) cells ([3]; 4 hours): 27%
- annexin V positive (apoptotic) cells ([3]; 24 hours): 5.9%
- PI positive (nectrotic) cells ([3]; 24 hours): 22.4%
- sub-G1 fraction (apoptotic cells) [4]: remained unaffected
- cells in the G2 phase ([4]; DMSO control 30.4%): 99.6%
- inhibition of MRP1 [5]: inhibition
